Experimental data from patent US9540373B2, “Substituted spirocycles” (Boehringer Ingelheim International GmbH, priority 2014, dated 2017).
Like-named read-outs stand apart in the source and are kept apart here.

Experiments:
[1] = Determination of metabolic stability with human liver microsomes; assay type: in vitro ADME; settings: pH 7.6; pooled human liver microsomes, 1 mg/ml protein, 1 μM compound, 37° C., NADPH; read-out: In vitro stability in human liver microsome incubations t1/2
Experimental: Determination of Metabolic Stability with Human Liver Microsomes
The metabolic degradation of the test compound is assayed at 37° C. with pooled human liver microsomes. The final incubation volume of 100 μl per time point contains TRIS buffer pH 7.6 (0.1 M), magnesium chloride (5 mM), microsomal protein (1 mg/ml) and the test compound at a final concentration of 1 μM. Following a short preincubation period at 37° C., the reactions are initiated by addition of beta-nicotinamide adenine dinucleotide phosphate, reduced form (NADPH, 1 mM) and terminated by transferring an aliquot into acetonitrile after different time points. Additionally, the NADPH-independent degradation is monitored in incubations without NADPH, terminated at the last time point. The [%] remaining test compound after NADPH independent incubation is reflected by the parameter c (control) (metabolic stability). The quenched incubations are pelleted by centrifugation (10′000 g, 5 min.) An aliquot of the supernatant is assayed by LC-MS/MS for the amount of parent compound.
The half-life (t1/2 INVITRO) is determined by the slope of the semilogarithmic plot of the concentration-time profile. The intrinsic clearance (CL_INTRINSIC) is calculated by considering the amount of protein in the incubation: CL_INTRINSIC [μl/min/mg protein]=(ln 2/(half-life [min]*protein content [mg/ml]))*1′000.

[2] = tested on: neutrophil elastase activity in U937 cells; assay: Determination of neutrophil elastase activity in U937 cytosolic lysate preparation after incubation with test compound; assay type: cell-based; settings: Homo sapiens, U-937; U937 cells incubated 48 hours with compound, NE activity in lysate; read-out: Reduction of NE-activity in U937 cells IC50
Experimental: Determination of Neutrophil Elastase Activity in U937 Cytosolic Lysate Preparation after Incubation with Test Compound Materials:
24 well Nunclon cell culture plates (No. 142475) and 96 well plates (No. 267245) were from Nunc.
Dimethylsulfoxid (DMSO) was from Sigma (Prod. No. D8418). Nonidet-P40 (NP40) was from USBiological (Prod. No. N3500)
Substrate, specific for Neutrophil elastase, was from Bachem (MeOSuc-Ala-Ala-Pro-Val-AMC; Prod. No. I-1270).
Human neutrophil elastase was from Calbiochem (Prod. No. 324681)
Tris-buffer (100 mM Tris; 1M NaCl; pH 7.5)
Tris-buffer+HSA 0.1%; Human Serum Albumin from Calbiochem (Cat#. 126658)
Serine-protease buffer (20 mM Tris; 100 mM NaCl; pH 7.5)+0.1% HSA
Serine protease lysis buffer: 20 mM Tris-HCl; 100 mM NaCl pH 7.5; +0.2% Nonidet-P40;
PBS: phosphate buffered saline, without Ca and Mg, from Gibco
U937 from ECACC (Cat. No. 85011440) cultured in suspension at 37° C. and 5% CO2.
Cell density: 0.2-1 Mio. Cells/ml.
Medium: RPMI1640 GlutaMAX (No. 61870) with 10% FCS from Gibco
Cell Seeding and Treatment:
Compounds in 100% DMSO were diluted in Medium (−FCS) with 10% DMSO and further diluted according to the experiment planned.
20 μl of the compound solution was transferred in the respective wells of the 24 well plate and diluted with 2 ml cell suspension/well containing 1×10^5 cells/ml (final concentration of DMSO=0.1%). Compound dilution factor=100
Compounds (up to 7 concentrations) were tested in triplicates with 3 wells for the DMSO 0.1% control, incubated for 48 hours without medium change at 37° C., 5% CO2 and 95% relative humidity.
Cell Harvesting and Cell Lysate:
Transfer the cell suspension in 2 ml 96 well assay block. Separate cells from medium by centrifugation (500×g; 10 min; RT); discard the supernatant. Resuspend in 1 ml PBS; centrifugation (500×g; 10 min; RT); wash cells twice with PBS. Add 80 μl Serine protease lysis buffer (ice cold) to the cell pellet; resuspend the pellet and store on ice for 10 minutes. Remove debris by centrifugation at 1000×g for 10 min at 4° C. Transfer 80-100 μl lysate supernatant in 96 well plate and store immediately at −80° C.
Neutrophil Elastase Activity Assay:
Frozen lysates were thaw at 37° C. for 10 minutes and stored on ice. Protein content was determined with Bradford protein assay. Lysates were diluted to 0.2-0.5 mg/ml protein in serine protease buffer+HSA.
Standard: NE (100 μg/ml stock solution in Tris-buffer; stored at −80° C.) was diluted in Tris-buffer+HSA to 750 ng/ml, and further serially diluted 1:2 for the standard curve. Buffer, blank, standard and lysate samples were transferred into 384 well plate
Blank: 5 μl Tris-buffer+10 μl Serine protease buffer+5 μl Substrate
Standard: 5 μl Tris-buffer+10 μl NE (diff. conc.)+5 μl Substrate
Lysate: 5 μl Tris-buffer+10 μl Lysat+5 μl Substrate
The increase in fluorescence (Ex360 nm/Em 460 nm) is determined after 30 minutes with a Molecular Device Spectramax M5 Fluorescence Reader. The result is interpolated to ng/mg lysate protein using excel formula functions. Percent inhibition in the compound-treated lysate samples is calculated relative to the DMSO-treated control-sample (100−(compound-sample*100)/control-sample)
A test compound will give values between 0% and 100% inhibition of neutrophil elastase. IC50 is calculated using Graphpad Prism; nonlinear fitting (log(inhibitor) vs. response—Variable slope). The IC50 value is interpolated as the concentration of test compound which leads to a neutrophil elastase activity reduction of 50% (relative to the DMSO-treated control).

[3] = target: recombinant human DPPI (Cathepsin C) (Homo sapiens (Human), UniProt P53634); assay: Inhibition of human DPPI (Cathepsin C); assay type: biochemical
Sequence of recombinant human DPPI (Cathepsin C) (P53634 231-394): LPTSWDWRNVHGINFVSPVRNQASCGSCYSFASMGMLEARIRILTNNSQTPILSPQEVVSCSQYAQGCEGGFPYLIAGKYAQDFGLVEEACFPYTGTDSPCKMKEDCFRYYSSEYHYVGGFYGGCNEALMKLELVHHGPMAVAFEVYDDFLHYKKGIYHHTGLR
Sequence of recombinant human DPPI (Cathepsin C) (P53634 25-134): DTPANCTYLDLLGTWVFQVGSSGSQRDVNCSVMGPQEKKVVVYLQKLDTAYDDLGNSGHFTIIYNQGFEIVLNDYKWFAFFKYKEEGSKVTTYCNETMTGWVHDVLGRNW
Sequence of recombinant human DPPI (Cathepsin C) (P53634 395-463): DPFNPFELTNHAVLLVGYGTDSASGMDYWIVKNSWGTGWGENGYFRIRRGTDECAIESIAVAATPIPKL
Experimental: Inhibition of Human DPPI (Cathepsin C)
The analysis of the data was performed by calculating the percentage of fluorescence in the presence of test compound in comparison to the fluorescence of the vehicle control after 20 subtracting the background fluorescence using the following formula: (RFU(sample)−RFU(background))*100/(RFU(control)−RFU(background))
Data from these calculations were used to generate IC50 values for inhibition of DPPI, respectively.

[4] = recombinant human DPPI, substrate Gly-Arg-AMC, pH 6.0, read-out: Inhibition of DPPI IC50
[5] = Table 14, compounds examined in X-ray crystallography, read-out: CatC IC50

SMILES | half-life at 1 μM [1] | IC50 [2] | IC50 [3, 4] | IC50 [3, 5]
CN1CCC2(C1)OC(=O)c1cnc(-c3ccc(C[C@@H](C#N)NC(=O)[C@H]4N[C@@H]5CC[C@H]4C5)c(F)c3)cc12 (some centres unmarked) [Example 20] | > 2.17 h | 23.2 nM | 1.6 nM | 
N#C[C@H](Cc1ccc(-c2ccc3c(c2)C2(CNC2)OC3=O)cc1F)NC(=O)[C@H]1N[C@@H]2CC[C@H]1C2 [Example 11] | > 2.17 h | 10.7 nM | 0.7 nM | 0.7 nM
CN1CC2(C1)OC(=O)c1ccc(-c3ccc(C[C@@H](C#N)NC(=O)[C@H]4N[C@@H]5CC[C@H]4C5)c(F)c3)cc12 [Example 12] | 0.767 h | 1.2 nM | 0.5 nM | 
N#C[C@H](Cc1ccc(-c2ccc3c(c2)C2(CCNC2)C(=O)N3)cc1F)NC(=O)[C@H]1N[C@@H]2CC[C@H]1C2 (some centres unmarked) [Example 16] | > 2.17 h | 73.8 nM | 0.5 nM | 0.5 nM
CN1C(=O)C2(CCNCC2)c2cc(-c3ccc(C[C@@H](C#N)NC(=O)[C@H]4N[C@@H]5CC[C@H]4C5)c(F)c3)ccc21 [Example 4] | > 2.17 h | 91 nM | 0.4 nM | 
CN1CCC2(CC1)OC(=O)c1cnc(-c3ccc(C[C@@H](C#N)NC(=O)[C@H]4N[C@@H]5CC[C@H]4C5)c(F)c3)cc12 [Example 19] | > 2.17 h | 5 nM | 1 nM | 
CN1CCC2(CC1)C(=O)N(C)c1ccc(-c3ccc(C[C@@H](C#N)NC(=O)[C@H]4N[C@@H]5CC[C@H]4C5)c(F)c3)cc12 [Example 5] | > 2.17 h | 2.3 nM | 0.6 nM | 
CN1CCC2(CC1)OCc1ccc(-c3ccc(C[C@@H](C#N)NC(=O)[C@H]4N[C@@H]5CC[C@H]4C5)c(F)c3)cc12 [Example 14] | > 2.17 h | 1.1 nM | 1 nM | 
N#C[C@H](Cc1ccc(-c2ccc3c(c2)C2(CCNCC2)C(=O)N3)cc1F)NC(=O)[C@H]1N[C@@H]2CC[C@H]1C2 [Example 3] | > 2.17 h | 503 nM | 0.3 nM | 
CN1CCC2(CCc3ccc(-c4ccc(C[C@@H](C#N)NC(=O)[C@H]5N[C@@H]6CC[C@H]5C6)c(F)c4)cc32)CC1 [Example 15] | > 2.17 h | 0.2 nM | 0.5 nM | 
N#C[C@H](Cc1ccc(-c2ccc3c(c2)C2(CCNCC2)OC3=O)cc1F)NC(=O)[C@H]1N[C@@H]2CC[C@H]1C2 [Example 7] | > 2.17 h | 34.9 nM | 0.5 nM | 
CN1CCC2(CC1)OC(=O)c1ccc(-c3ccc(C[C@@H](C#N)NC(=O)[C@H]4N[C@@H]5CC[C@H]4C5)c(F)c3)cc12 [Example 8] | 1.23 h | 0.8 nM | 0.7 nM | 
N#C[C@H](Cc1ccc(-c2cc3c(cn2)COC32CCN(C3COC3)CC2)cc1F)NC(=O)[C@H]1N[C@@H]2CC[C@H]1C2 [Example 23, (1S,2S,4R)—N-[(1S)-1-cyano-2-[2-fluoro-4-[1′-(oxetan-3-yl)spiro[3H-furo[3,4-c]pyridine-1,4′-piperidine]-6-yl]phenyl]ethyl]-3-azabicyclo[2.2.1]heptane-2-carboxamide] | > 2.17 h | 7.5 nM | 5 nM | 
CN1CCCC2(C1)C(=O)N(C)c1ccc(-c3ccc(C[C@@H](C#N)NC(=O)[C@H]4N[C@@H]5CC[C@H]4C5)c(F)c3)cc12 (some centres unmarked) [Example 17] | 1 h | 0.6 nM | 1.6 nM | 
N#C[C@H](Cc1ccc(-c2cc3c(cn2)C(=O)OC32CCN(C3COC3)CC2)cc1F)NC(=O)[C@H]1N[C@@H]2CC[C@H]1C2 [Example 22] | > 2.17 h | 15.7 nM | 4.8 nM | 
N#C[C@H](Cc1ccc(-c2ccc3c(c2)C2(CCN(C4COC4)CC2)OC3)cc1F)NC(=O)C12CCC(CC1)CN2 [Example 27, N-[(1S)-1-cyano-2-[2-fluoro-4-[1′-(oxetan-3-yl)spiro[1H-isobenzofuran-3,4′-piperidine]-5-yl]phenyl]ethyl]-3-azabicyclo[2.2.2]octane-4-carboxamide] | 2 h | 0.7 nM | 2.9 nM | 
N#C[C@H](Cc1ccc(-c2ccc3c(c2)C2(CCNCC2)OC3)cc1F)NC(=O)[C@H]1N[C@@H]2CC[C@H]1C2 [Example 13] | > 2.17 h | 16.7 nM | 0.6 nM | 
N#C[C@H](Cc1ccc(-c2cc3c(cn2)C(=O)OC32CCNCC2)cc1F)NC(=O)[C@H]1N[C@@H]2CC[C@H]1C2 [Example 18] | > 2.17 h | 220 nM | 1.6 nM | 
CN1CCC2(CC1)OCc1cnc(-c3ccc(C[C@@H](C#N)NC(=O)[C@H]4N[C@@H]5CC[C@H]4C5)c(F)c3)cc12 [Example 26, (1S,2S,4R)—N-[(1S)-1-cyano-2-[2-fluoro-4-(1′-methylspiro[3H-furo[3,4-c]pyridine-1,4′-piperidine]-6-yl)phenyl]ethyl]-3-azabicyclo[2.2.1]heptane-2-carboxamide] | 0.917 h | 4.6 nM | 2 nM | 
CN1CCC2(CC1)OC(=O)c1ncc(-c3ccc(C[C@@H](C#N)NC(=O)[C@H]4N[C@@H]5CC[C@H]4C5)c(F)c3)cc12 [Example 21] | > 2.17 h | 63.7 nM | 1.4 nM | 
N#C[C@H](Cc1ccc(-c2ccc3c(n2)C2(CCN(C4COC4)CC2)OC3=O)cc1F)NC(=O)[C@H]1N[C@@H]2CC[C@H]1C2 [Example 24] | > 2.17 h | 6 nM | 2.7 nM | 
CN1CCC2(CC1)C(=O)Nc1ccc(-c3ccc(C[C@@H](C#N)NC(=O)[C@H]4N[C@@H]5CC[C@H]4C5)c(F)c3)cc12 [Example 6] | 1.83 h | 22.2 nM | 0.2 nM | 
N#C[C@H](Cc1ccc(-c2ccc3c(c2)C2(CCNC2)OC3=O)cc1F)NC(=O)[C@H]1N[C@@H]2CC[C@H]1C2 (some centres unmarked) [Example 9] | > 2.17 h | 21.5 nM | 0.5 nM | 
